This assay deals with BSAP and PICP serum levels, NTX urine levels. The assay is described as follows: Example 3 clinical trial of rhPTH(1-34) vs alendronate: bone markers. The class given is in vivo, human. Particulars: alendronate 10 mg per day. On the procedure:
• Number of Subjects: • rhPTH(1-34): 73 enrolled, 51 finished. • Alendronate (Fosamax®): 73 enrolled, 57 finished. • Diagnosis and Inclusion Criteria: Women aged 65±8 years, postmenopausal for 19±19 years, selected for a baseline spine bone mineral density of 0.8±0.1 and a T value of −2.2. Dosage and Administration: • Test Product (blinded) • rhPTH(1-34): 40 μg/day, given subcutaneously • Reference (Control) Therapy (blinded) • Alendronate (Fosamax®): 10 mg per patient per day • Duration of Treatment: • rhPTH(1-34): 12-18 months, with follow up from time of withdrawal of drug to 18 months of study. • Alendronate: 12-18 months, with follow up from time of withdrawal of drug to 18 months of study. • Criteria for Evaluation: Spine x-ray, serum biological markers (calcium, bone-specific alkaline phosphatase, procollagen I carboxy-terminal propeptide); urine makers (calcium, N-telopeptide, fir deoxypyridinoline); 1,25-dihydroxyvitamin D; bone mineral density spine, hip, wrist, and total body.
Measures of BSAP, PICP, and NTX levels were determined for each patient through the course of therapy generally according to methods described above in Example 1.

As to `NCCCC(O)(P(=O)(O)O)P(=O)(O)O` [alendronate, reference compound], the PICP serum level entry (FIG. 8) is recorded as “a decrease in PICP was observed”. Further, where the note is “FIG. 9”, the NTX urine levels result is “generally declined slightly during the first 6 months of the study and then remained diminished for the duration of the study”. The BSAP serum level entry (after about 4 months, FIG. 7) is reported as “A decrease in BSAP level was observed”.

These data come from US20050255537A1, “Method for monitoring treatment with a parathyroid hormone” (priority 1999, published 2005).
